{
  "source": "paper PMC1192819",
  "about": "“Molecular cloning and characterization of a nuclear androgen receptor activated by 11-ketotestosterone” (Reproductive biology and endocrinology : RB&E, 2005)",
  "key": {"[1]": {"biological_target": "T1, human AR (Homo sapiens, UniProt P10275)", "T1 construct": "expressed in transfected cells; host or cells: ZFL (zebrafish liver) cells", "T1 sequence (P10275 1-920)": "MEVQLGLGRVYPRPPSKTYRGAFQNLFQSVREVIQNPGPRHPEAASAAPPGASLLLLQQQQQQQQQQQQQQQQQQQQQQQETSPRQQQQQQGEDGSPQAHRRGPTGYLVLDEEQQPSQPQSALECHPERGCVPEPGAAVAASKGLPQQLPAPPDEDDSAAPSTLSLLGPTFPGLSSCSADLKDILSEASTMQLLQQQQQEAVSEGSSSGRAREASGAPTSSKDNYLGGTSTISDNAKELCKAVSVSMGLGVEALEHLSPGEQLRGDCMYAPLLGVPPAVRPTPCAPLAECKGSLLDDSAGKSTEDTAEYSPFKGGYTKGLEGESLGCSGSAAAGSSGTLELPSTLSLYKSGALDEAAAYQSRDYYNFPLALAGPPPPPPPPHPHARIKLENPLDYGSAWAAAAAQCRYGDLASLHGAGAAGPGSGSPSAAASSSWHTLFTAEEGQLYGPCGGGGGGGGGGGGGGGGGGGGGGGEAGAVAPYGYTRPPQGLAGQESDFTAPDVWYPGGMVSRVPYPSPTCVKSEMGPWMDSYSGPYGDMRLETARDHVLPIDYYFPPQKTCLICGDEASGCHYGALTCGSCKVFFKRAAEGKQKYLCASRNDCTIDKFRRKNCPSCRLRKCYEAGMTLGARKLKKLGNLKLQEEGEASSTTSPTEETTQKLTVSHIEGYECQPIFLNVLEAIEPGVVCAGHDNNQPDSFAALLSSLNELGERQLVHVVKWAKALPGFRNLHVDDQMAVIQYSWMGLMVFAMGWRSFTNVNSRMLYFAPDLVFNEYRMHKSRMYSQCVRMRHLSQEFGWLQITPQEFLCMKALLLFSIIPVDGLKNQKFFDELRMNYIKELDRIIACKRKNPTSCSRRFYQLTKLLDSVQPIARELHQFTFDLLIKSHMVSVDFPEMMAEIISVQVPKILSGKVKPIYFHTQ", "test": "ARE-luciferase trans-activation assay, human AR in transfected ZFL cells", "format": "cell-based", "conditions": "10^-8 M of each steroid", "experimental": "Two liver epithelial cell lines were used to test receptor activity. HepG2 cells (ATCC, Manassas, VA) were maintained in DMEM supplemented with 10% FCS and non-essential amino acids. ZFL cells (ATCC) were maintained in 50% L-15 Leibovitz, 15% H-12 Ham and 35% DMEM supplemented with 10% FCS (Gibco, Paisley, Scotland, UK) and 50 ng ml-1 EGF (Sigma). Cells were cultured at 37°C (HepG2) or 28°C (ZFL) in 5% CO2. The transfection experiments were initiated by replacing the tissue culture medium with fresh phenol-free medium supplemented with charcoal stripped FCS and the cells were seeded on 24-well plates. Transfections were performed at 90–95% confluence using 1,5 μl Lipofectamine 2000 (Invitrogen, Carlsbad, CA, USA) and 0,6 μg DNA per well. […]\nAfter 16 h the transfection medium was replaced with fresh phenol-free medium, supplemented with charcoal stripped FCS, containing different steroid hormones. The cells were exposed to the hormones for 40 h and luciferase levels were detected using the Dual Luciferase Assay kit (Promega) in a TD 20/20 Luminometer (Turner Designs, Sunnyvale, CA). […]"}, "[2]": {"biological_target": "T2, stickleback ARβ2 (reticulocyte lysate) (Gasterosteus aculeatus, UniProt Q801Z2)", "T2 sequence (Q801Z2 1-735)": "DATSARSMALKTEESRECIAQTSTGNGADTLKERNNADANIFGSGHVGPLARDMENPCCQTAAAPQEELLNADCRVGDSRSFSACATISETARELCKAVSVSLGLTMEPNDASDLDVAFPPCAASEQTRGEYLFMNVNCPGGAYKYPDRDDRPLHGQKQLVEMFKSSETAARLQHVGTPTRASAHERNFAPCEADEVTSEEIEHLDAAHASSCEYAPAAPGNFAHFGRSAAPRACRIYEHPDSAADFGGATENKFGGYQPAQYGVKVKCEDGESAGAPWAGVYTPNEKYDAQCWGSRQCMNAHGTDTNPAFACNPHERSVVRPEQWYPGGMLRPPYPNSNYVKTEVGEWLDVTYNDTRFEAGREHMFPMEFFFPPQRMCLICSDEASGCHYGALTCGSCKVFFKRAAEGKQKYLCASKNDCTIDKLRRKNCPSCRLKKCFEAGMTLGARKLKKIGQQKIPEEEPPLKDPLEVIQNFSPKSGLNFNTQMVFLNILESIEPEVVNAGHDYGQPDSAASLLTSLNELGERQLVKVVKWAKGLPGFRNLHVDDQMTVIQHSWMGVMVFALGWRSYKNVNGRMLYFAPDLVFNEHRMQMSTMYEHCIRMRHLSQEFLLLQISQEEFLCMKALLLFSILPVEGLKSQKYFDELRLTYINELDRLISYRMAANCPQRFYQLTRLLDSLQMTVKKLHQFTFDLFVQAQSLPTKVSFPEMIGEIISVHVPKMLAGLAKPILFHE", "test": "Ligand competition assay with 1 nM [3H]-DHT, ARβ2 containing reticulocyte extract", "format": "binding, three-spined stickleback (Gasterosteus aculeatus)", "conditions": "read-out: EC50 (competition for [3H]-DHT binding)", "protocol": "The excised AR pBK CMV clones were digested with XbaI and EcoRI and the inserts were gel purified prior to ligation into the pCMV-TNT vector (Promega) between XbaI and EcoRI. […] AR was expressed by introducing the pCMV-TNT into the TNT coupled reticulocyte lysate system (Promega) according to the manufacturer's instructions. The size of the expressed products was determined by addition of S^35-methionin to the reticulocyte lysate system. The obtained protein suspension was analyzed on a denaturing 8% SDS PAGE and the sizes were determined using prestained SDS-PAGE broad range protein molecular weight standard (Bio-Rad) and a control luciferase protein of 62 kDa included in the reticulocyte lysate system (Promega). For use in binding assays AR was expressed in the absence of radioactive S^35-methionein and stored at 4°C until further used in recombinant binding assay experiments.\nThe steroid specificity of receptor binding was examined using a competitive binding assay. […] Following incubation, the reaction was terminated by addition of DCC and centrifugation and the specific binding in each tube was determined as described above."}, "[3]": {"tested_on": "rainbow trout ARα", "conditions": "COS-1 cell line; read-out: IC50 (ligand binding); cited from earlier work"}},
  "data": [
    {"smiles": "C[C@]12CC(=O)[C@H]3[C@@H](CCC4=CC(=O)CC[C@@]43C)[C@@H]1CC[C@@H]2O", "note": "[KT, 11-ketotestosterone]", "values": [
      {"measurement": "activation of human AR compared among androgens", "setting": "[1]", "result": "equally activated"},
      {"measurement": "EC50", "setting": "[2]", "result": "2.18 ± 0.71", "unit": "nM"},
      {"measurement": "IC50", "setting": "[3]", "result": 8, "unit": "nM"}
    ]}
  ]
}
